Source: US20230301300A1, “HERBICIDAL COMPOSITIONS” (SYNGENTA CROP PROTECTION AG, priority 2020, published 2023)

Legend:
Experiment in all cases: B2 Post-Emergence Efficacy - Test 2
Type in all cases: in vivo
Avena fatua (AVEFA) = conditions: 15 days after application, 0-100 scale
Outline: (§1)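 Sow in standard soil; grow 12 d under controlled conditions, 65% humidity, 16 h light, 24/18 °C or 20/16 °C. Spray with water-diluted IF50 formulation, 0.2% v/v Genapol X080. Water twice daily. Assess injury at 15 d (0–100).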

Bidens pilosa (BIDPI) = conditions: 15 days after application, 0-100 scale
Outline: as §1

[1] = tested on: Brachiaria plantaginea (BRAPL); conditions: 15 days after application, 0=no damage, 100=total kill
Outline: as §1

Brassica napus (BRSNN) = conditions: 15 days after application, 0-100 scale
Outline: as §1

[2] = tested on: Chenopodium album (CHEAL); conditions: 15 days after application, 0-100 scale
Outline: as §1

[3] = tested on: Digitaria sanguinalis (DIGSA); conditions: 15 days after application, 0=no damage, 100=total kill
Outline: as §1

[4] = tested on: Euphorbia hetrophylla (EPHHL); conditions: 15 days after application, 0-100 scale
Outline: as §1

Galium aparine (GALAP) = conditions: 15 days after application, 0-100 scale
Outline: as §1

[5] = tested on: Ipomoea hederacea (IPOHE); conditions: 15 days after application, 0-100 scale
Outline: as §1

Kochia scoparia (KSHSC) = conditions: 15 days after application, 0-100 scale
Outline: as §1

Orysa sativa (ORYSA) = conditions: 15 days after application; for Herbicidal activity ORYSA: 0-100 scale; for Herbicidal activity on a 0-100 scale, ORYSA: 0=no damage, 100=total kill
Outline: as §1

[6] = tested on: Panicum miliaceum (PANMI); conditions: 15 days after application, 0=no damage, 100=total kill
Outline: as §1

Poa annua (POAAN) = conditions: 15 days after application, 0-100 scale
Outline: as §1

Sinapis arvensis (SINAR) = conditions: 15 days after application, 0-100 scale
Outline: as §1

Sorghum bicolour (SORVU) = conditions: 15 days after application, 0=no damage, 100=total kill
Outline: as §1

Stellaria media (STEME) = conditions: 15 days after application, 0-100 scale
Outline: as §1

[7] = tested on: Triticum aestivum (TRZAW); conditions: 15 days after application, 0-100 scale
Outline: as §1

[8] = tested on: Xanthium strumarium (XANST); conditions: 15 days after application, 0-100 scale
Outline: as §1

With Cc1nn(C)c(=O)c(-c2c(F)ccc(Cl)c2CCc2ccc(F)cc2)c1OC(=O)C(C)C [Compound 1.125, [5-[3-chloro-6-fluoro-2-[2-(4-fluorophenyl)ethyl]phenyl]-1,3-dimethyl-6-oxo-pyridazin-4-yl] 2-methylpropanoate] the “Herbicidal activity AVEFA” value (Avena fatua (AVEFA); 15 g/Ha) was 30, the “Herbicidal activity AVEFA” value (Avena fatua (AVEFA); 30 g/Ha) was 40 and the “Herbicidal activity AVEFA” value (Avena fatua (AVEFA); 60 g/Ha) was 60. For the same compound, the “Herbicidal activity AVEFA” value (Avena fatua (AVEFA); 125 g/Ha) was 70, the “Herbicidal activity AVEFA” value (Avena fatua (AVEFA); 250 g/Ha) was 70 and the “Herbicidal activity AVEFA” value (Avena fatua (AVEFA); 500 g/Ha) was 80. The “Herbicidal activity BIDPI” value (Bidens pilosa (BIDPI); 15 g/Ha) was 60, the “Herbicidal activity BIDPI” value (Bidens pilosa (BIDPI); 30 g/Ha) was 60 and the “Herbicidal activity BIDPI” value (Bidens pilosa (BIDPI); 60 g/Ha) was 70. For the same compound, the “Herbicidal activity BIDPI” value (Bidens pilosa (BIDPI); 125 g/Ha) was 70, the “Herbicidal activity BIDPI” value (Bidens pilosa (BIDPI); 250 g/Ha) was 80 and the “Herbicidal activity BIDPI” value (Bidens pilosa (BIDPI); 500 g/Ha) was 100. The “Herbicidal activity on a 0-100 scale, BRAPL” value (from here on “Herbicidal activity … BRAPL”) ([1]; 15 g/Ha) was 80, the “Herbicidal activity … BRAPL” value ([1]; 60 g/Ha) was 80 and the “Herbicidal activity … BRAPL” value ([1]; 125 g/Ha) was 80. The “Herbicidal activity … BRAPL” value ([1]; 250 g/Ha) was 70, the “Herbicidal activity … BRAPL” value ([1]; 500 g/Ha) was 80 and the “Herbicidal activity BRSNN” value (Brassica napus (BRSNN); 15 g/Ha) was 80. The “Herbicidal activity BRSNN” value (Brassica napus (BRSNN); 30 g/Ha) was 80, the “Herbicidal activity BRSNN” value (Brassica napus (BRSNN); 60 g/Ha) was 80 and the “Herbicidal activity BRSNN” value (Brassica napus (BRSNN); 125 g/Ha) was 90. For the same compound, the “Herbicidal activity BRSNN” value (Brassica napus (BRSNN); 250 g/Ha) was 90, the “Herbicidal activity BRSNN” value (Brassica napus (BRSNN); 500 g/Ha) was 90 and the “Herbicidal activity CHEAL” value ([2]; 15 g/Ha) was 90. The “Herbicidal activity CHEAL” value ([2]; 30 g/Ha) was 90, the “Herbicidal activity CHEAL” value ([2]; 60 g/Ha) was 90 and the “Herbicidal activity CHEAL” value ([2]; 125 g/Ha) was 90. For the same compound, the “Herbicidal activity CHEAL” value ([2]; 250 g/Ha) was 90, the “Herbicidal activity CHEAL” value ([2]; 500 g/Ha) was 90 and the “Herbicidal activity on a 0-100 scale, DIGSA” value (from here on “Herbicidal activity … DIGSA”) ([3]; 15 g/Ha) was 0. For the same compound, the “Herbicidal activity … DIGSA” value ([3]; 30 g/Ha) was 0, the “Herbicidal activity … DIGSA” value ([3]; 60 g/Ha) was 0 and the “Herbicidal activity … DIGSA” value ([3]; 125 g/Ha) was 10. For the same compound, the “Herbicidal activity … DIGSA” value ([3]; 250 g/Ha) was 30, the “Herbicidal activity … DIGSA” value ([3]; 500 g/Ha) was 70 and the “Herbicidal activity EPHHL” value ([4]; 15 g/Ha) was 90. The “Herbicidal activity EPHHL” value ([4]; 30 g/Ha) was 90, the “Herbicidal activity EPHHL” value ([4]; 60 g/Ha) was 100 and the “Herbicidal activity EPHHL” value ([4]; 125 g/Ha) was 100. For the same compound, the “Herbicidal activity EPHHL” value ([4]; 250 g/Ha) was 100, the “Herbicidal activity EPHHL” value ([4]; 500 g/Ha) was 100 and the “Herbicidal activity GALAP” value (Galium aparine (GALAP); 30 g/Ha) was 20. For the same compound, the “Herbicidal activity GALAP” value (Galium aparine (GALAP); 60 g/Ha) was 20, the “Herbicidal activity GALAP” value (Galium aparine (GALAP); 125 g/Ha) was 30 and the “Herbicidal activity GALAP” value (Galium aparine (GALAP); 250 g/Ha) was 40. For the same compound, the “Herbicidal activity GALAP” value (Galium aparine (GALAP); 500 g/Ha) was 70, the “Herbicidal activity IPOHE” value ([5]; 15 g/Ha) was 90 and the “Herbicidal activity IPOHE” value ([5]; 30 g/Ha) was 100. For the same compound, the “Herbicidal activity IPOHE” value ([5]; 60 g/Ha) was 100, the “Herbicidal activity IPOHE” value ([5]; 125 g/Ha) was 100 and the “Herbicidal activity IPOHE” value ([5]; 250 g/Ha) was 100. For the same compound, the “Herbicidal activity IPOHE” value ([5]; 500 g/Ha) was 100, the “Herbicidal activity KCHSC” value (Kochia scoparia (KSHSC); 15 g/Ha) was 0 and the “Herbicidal activity KCHSC” value (Kochia scoparia (KSHSC); 30 g/Ha) was 2. For the same compound, the “Herbicidal activity KCHSC” value (Kochia scoparia (KSHSC); 60 g/Ha) was 30, the “Herbicidal activity KCHSC” value (Kochia scoparia (KSHSC); 125 g/Ha) was 50 and the “Herbicidal activity KCHSC” value (Kochia scoparia (KSHSC); 250 g/Ha) was 60. The “Herbicidal activity KCHSC” value (Kochia scoparia (KSHSC); 500 g/Ha) was 70, the “Herbicidal activity ORYSA” value (Orysa sativa (ORYSA); 15 g/Ha) was 0 and the “Herbicidal activity on a 0-100 scale, ORYSA” value (Orysa sativa (ORYSA); 15 g/Ha) was 0. The “Herbicidal activity ORYSA” value (Orysa sativa (ORYSA); 30 g/Ha) was 0, the “Herbicidal activity on a 0-100 scale, ORYSA” value (Orysa sativa (ORYSA); 30 g/Ha) was 0 and the “Herbicidal activity ORYSA” value (Orysa sativa (ORYSA); 60 g/Ha) was 0. The “Herbicidal activity on a 0-100 scale, ORYSA” value (Orysa sativa (ORYSA); 60 g/Ha) was 0, the “Herbicidal activity ORYSA” value (Orysa sativa (ORYSA); 125 g/Ha) was 0 and the “Herbicidal activity on a 0-100 scale, ORYSA” value (Orysa sativa (ORYSA); 125 g/Ha) was 0. The “Herbicidal activity ORYSA” value (Orysa sativa (ORYSA); 250 g/Ha) was 0, the “Herbicidal activity on a 0-100 scale, ORYSA” value (Orysa sativa (ORYSA); 250 g/Ha) was 0 and the “Herbicidal activity ORYSA” value (Orysa sativa (ORYSA); 500 g/Ha) was 0. For the same compound, the “Herbicidal activity on a 0-100 scale, ORYSA” value (Orysa sativa (ORYSA); 500 g/Ha) was 0, the “Herbicidal activity on a 0-100 scale, PANMI” value (“Herbicidal activity … PANMI” for short) ([6]; 15 g/Ha) was 20 and the “Herbicidal activity … PANMI” value ([6]; 30 g/Ha) was 30. For the same compound, the “Herbicidal activity … PANMI” value ([6]; 60 g/Ha) was 50, the “Herbicidal activity … PANMI” value ([6]; 125 g/Ha) was 50 and the “Herbicidal activity … PANMI” value ([6]; 250 g/Ha) was 70. The “Herbicidal activity … PANMI” value ([6]; 500 g/Ha) was 80, the “Herbicidal activity POAAN” value (Poa annua (POAAN); 15 g/Ha) was 0 and the “Herbicidal activity POAAN” value (Poa annua (POAAN); 30 g/Ha) was 10. The “Herbicidal activity POAAN” value (Poa annua (POAAN); 60 g/Ha) was 20, the “Herbicidal activity POAAN” value (Poa annua (POAAN); 125 g/Ha) was 60 and the “Herbicidal activity POAAN” value (Poa annua (POAAN); 250 g/Ha) was 70. The “Herbicidal activity POAAN” value (Poa annua (POAAN); 500 g/Ha) was 60, the “Herbicidal activity SINAR” value (Sinapis arvensis (SINAR); 15 g/Ha) was 60 and the “Herbicidal activity SINAR” value (Sinapis arvensis (SINAR); 30 g/Ha) was 60. For the same compound, the “Herbicidal activity SINAR” value (Sinapis arvensis (SINAR); 60 g/Ha) was 80, the “Herbicidal activity SINAR” value (Sinapis arvensis (SINAR); 125 g/Ha) was 90 and the “Herbicidal activity SINAR” value (Sinapis arvensis (SINAR); 250 g/Ha) was 90. The “Herbicidal activity SINAR” value (Sinapis arvensis (SINAR); 500 g/Ha) was 90, the “Herbicidal activity on a 0-100 scale, SORVU” value (“Herbicidal activity … SORVU” for short) (Sorghum bicolour (SORVU); 15 g/Ha) was 0 and the “Herbicidal activity … SORVU” value (Sorghum bicolour (SORVU); 30 g/Ha) was 50. For the same compound, the “Herbicidal activity … SORVU” value (Sorghum bicolour (SORVU); 60 g/Ha) was 50, the “Herbicidal activity … SORVU” value (Sorghum bicolour (SORVU); 125 g/Ha) was 70 and the “Herbicidal activity … SORVU” value (Sorghum bicolour (SORVU); 250 g/Ha) was 80. The “Herbicidal activity … SORVU” value (Sorghum bicolour (SORVU); 500 g/Ha) was 90, the “Herbicidal activity STEME” value (Stellaria media (STEME); 15 g/Ha) was 90 and the “Herbicidal activity STEME” value (Stellaria media (STEME); 30 g/Ha) was 90. For the same compound, the “Herbicidal activity STEME” value (Stellaria media (STEME); 60 g/Ha) was 90, the “Herbicidal activity STEME” value (Stellaria media (STEME); 125 g/Ha) was 90 and the “Herbicidal activity STEME” value (Stellaria media (STEME); 250 g/Ha) was 90. The “Herbicidal activity STEME” value (Stellaria media (STEME); 500 g/Ha) was 90, the “Herbicidal activity TRZAW” value ([7]; 15 g/Ha) was 0 and the “Herbicidal activity TRZAW” value ([7]; 30 g/Ha) was 10. The “Herbicidal activity TRZAW” value ([7]; 60 g/Ha) was 10, the “Herbicidal activity TRZAW” value ([7]; 125 g/Ha) was 20 and the “Herbicidal activity TRZAW” value ([7]; 250 g/Ha) was 30. For the same compound, the “Herbicidal activity TRZAW” value ([7]; 500 g/Ha) was 50, the “Herbicidal activity XANST” value ([8]; 30 g/Ha) was 90 and the “Herbicidal activity XANST” value ([8]; 60 g/Ha) was 90. The “Herbicidal activity XANST” value ([8]; 125 g/Ha) was 90, the “Herbicidal activity XANST” value ([8]; 250 g/Ha) was 90 and the “Herbicidal activity XANST” value ([8]; 500 g/Ha) was 100.
